Values quoted from earlier work as cited in patent publication US10934070B2, “Anti-scalping pharmaceutical packaging film” (BEMIS COMPANY, INC., priority 2014, dated 2021).

Details: at 25° C.

In the case of `CN1CCCC1c1cccnc1` (stereo not shown) [Nicotine], the vapor pressure is given as 5.65 Pa.
